Measured values reported in PubChem BioAssay AID248 (DTP/NCI, 2004).
Where “and” joins values, the source holds several entries; their conditions need not be identical. Equal entries are not always repeated. Toxic doses and inconclusive results are not listed.

Test system: L1210 leukemia ip in BDF1 mice, survival T/C
Experiment: NCI In Vivo Anticancer Drug Screen. Data for tumor model L1210 Leukemia (intraperitoneal) in B6D2F1 (BDF1) mice
Settings: endpoint: mean survival time, higher = longer survival
Outline: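 In this screen, tumor-bearing mice given compound are compared to those given vehicle, and their survival values are reported as a treated-to-control quotient.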

[1] = dose: 25.0 mg/kg/injection, schedule: Q04DX003 (ip), vehicle: Klucel (hydroxypropylcellulose) (HPC)
[2] = dose: 50.0 mg/kg/injection, schedule: Q04DX003 (ip), vehicle: Klucel (hydroxypropylcellulose) (HPC)
[3] = dose: 100.0 mg/kg/injection, schedule: Q04DX003 (ip), vehicle: Klucel (hydroxypropylcellulose) (HPC)
[4] = dose: 100.0 mg/kg/injection, schedule: Q04DX003 (ip), vehicle: saline
[5] = dose: 200.0 mg/kg/injection, schedule: Q04DX003 (ip), vehicle: saline
[6] = dose: 100.0 mg/kg/injection, schedule: Q01DX009 (ip), vehicle: Klucel (hydroxypropylcellulose) (HPC)
[7] = dose: 200.0 mg/kg/injection, schedule: Q01DX009 (ip), vehicle: Klucel (hydroxypropylcellulose) (HPC)
[8] = dose: 200.0 mg/kg/injection, schedule: Q04DX003 (ip), vehicle: Klucel (hydroxypropylcellulose) (HPC)
[9] = dose: 400.0 mg/kg/injection, schedule: Q01DX009 (ip), vehicle: Klucel (hydroxypropylcellulose) (HPC)
[10] = dose: 400.0 mg/kg/injection, schedule: Q04DX003 (ip), vehicle: Klucel (hydroxypropylcellulose) (HPC)
[11] = dose: 100.0 mg/kg/injection, schedule: Q01DX001 (ip), vehicle: saline
[12] = dose: 200.0 mg/kg/injection, schedule: Q01DX001 (ip), vehicle: saline
[13] = dose: 400.0 mg/kg/injection, schedule: Q01DX001 (ip), vehicle: saline

Structure (SMILES): O=C(/C=C/c1ccco1)c1ccc([N+](=O)[O-])cc1
- T/C [1]: 106 % of control
- T/C [2]: 104 % of control
- T/C [3]: 97 % of control

Structure (SMILES): [Cl][Hg][Cl].c1ccc(CSc2ccccc2)cc1
- T/C (dose: 5.0 mg/kg/injection, schedule: Q01DX001 (ip), vehicle: carboxymethylcellulose (CMC)): 105 % of control

Structure (SMILES): CC[Si](CC)(c1ccccc1)N1CC1
- T/C (dose: 25.0 mg/kg/injection, schedule: Q01DX001 (ip), vehicle: carboxymethylcellulose (CMC)): 97 % of control
- T/C (dose: 50.0 mg/kg/injection, schedule: Q01DX001 (ip), vehicle: carboxymethylcellulose (CMC)): 101 % of control

Structure (SMILES): CC1(C)CCCC2(C)C1CC(O)C1(CO1)C2CCC(C)(O)C1CO1 (stereo unspecified)
- T/C (dose: 25.0 mg/kg/injection, schedule: Q01DX009 (ip), vehicle: DMSO): 92 % of control
- T/C (dose: 25.0 mg/kg/injection, schedule: Q04DX003 (ip), vehicle: DMSO): 88 % of control
- T/C (dose: 50.0 mg/kg/injection, schedule: Q01DX009 (ip), vehicle: DMSO): 96 % of control
- T/C (dose: 50.0 mg/kg/injection, schedule: Q04DX003 (ip), vehicle: DMSO): 93 % of control
- T/C (dose: 100.0 mg/kg/injection, schedule: Q04DX003 (ip), vehicle: DMSO): 97 % of control and 92 % of control

Structure (SMILES): CSc1ncc(CO)c(Nc2ccc(F)cc2)n1
- T/C [4]: 93 % of control
- T/C [5]: 100 % of control
- T/C (dose: 400.0 mg/kg/injection, schedule: Q04DX003 (ip), vehicle: saline): 98 % of control

Structure (SMILES): CN1C(C(=O)c2ccccc2)C1C(=O)c1ccccc1 (stereo unspecified)
- T/C (dose: 75.0 mg/kg/injection, schedule: Q04DX003 (ip), vehicle: carboxymethylcellulose (CMC)): 112 % of control
- T/C (dose: 150.0 mg/kg/injection, schedule: Q04DX003 (ip), vehicle: carboxymethylcellulose (CMC)): 102 % of control
- T/C (dose: 300.0 mg/kg/injection, schedule: Q04DX003 (ip), vehicle: carboxymethylcellulose (CMC)): 102 % of control

Structure (SMILES): C[N+](C)(CCCCOCCCC[N+](C)(C)Cc1ccc([N+](=O)[O-])cc1)Cc1ccc([N+](=O)[O-])cc1
- T/C (dose: 1.5 mg/kg/injection, schedule: Q04DX003 (ip), vehicle: saline with Tween-80): 98 % of control
- T/C (dose: 3.0 mg/kg/injection, schedule: Q04DX003 (ip), vehicle: saline with Tween-80): 104 % of control

Structure (SMILES): CCCCCCC(=O)CCCC(C)CCCC(C)C (stereo unspecified)
- T/C [6]: 91 % of control
- T/C [3]: 93 % of control
- T/C [7]: 97 % of control
- T/C [8]: 95 % of control
- T/C [9]: 98 % of control
- T/C [10]: 88 % of control

Structure (SMILES): CC1(C)OC2COC(c3[nH]nc4c(=O)[nH][nH]c(=O)c34)C2O1 (stereo unspecified)
- T/C (dose: 100.0 mg/kg/injection, schedule: Q01DX005 (ip), vehicle: saline): 103 % of control
- T/C (dose: 200.0 mg/kg/injection, schedule: Q01DX005 (ip), vehicle: saline): 106 % of control

Structure (SMILES): Cc1ccc([N+](=O)[O-])cc1NC(=O)Nc1ccc([N+](=O)[O-])cc1
- T/C [6]: 90 % of control
- T/C [7]: 90 % of control
- T/C [9]: 98 % of control

Structure (SMILES): CC1CCN(C(=O)C(c2ccccc2)c2ccccc2)CC1
- T/C (dose: 100.0 mg/kg/injection, schedule: Q04DX002 (ip), vehicle: Klucel (hydroxypropylcellulose) (HPC)): 101 % of control
- T/C (dose: 200.0 mg/kg/injection, schedule: Q04DX002 (ip), vehicle: Klucel (hydroxypropylcellulose) (HPC)): 86 % of control
- T/C (dose: 400.0 mg/kg/injection, schedule: Q04DX002 (ip), vehicle: Klucel (hydroxypropylcellulose) (HPC)): 101 % of control

Structure (SMILES): O=C(O)/C=C/c1ccccc1Cl
- T/C [1]: 94 % of control
- T/C [2]: 103 % of control
- T/C [3]: 96 % of control

Structure (SMILES): CCCCCCCCC1CCC(N)CC1 (stereo unspecified)
- T/C [6]: 95 % of control
- T/C [3]: 95 % of control
- T/C [7]: 93 % of control
- T/C [8]: 101 % of control
- T/C [10]: 98 % of control

Structure (SMILES): Clc1ccc2c(Cl)ncnc2c1
- T/C (dose: 13.0 mg/kg/injection, schedule: Q01DX Z (ip), vehicle: methylcellulose (MC)): 100 % of control
- T/C (dose: 20.0 mg/kg/injection, schedule: Q01DX Z (ip), vehicle: methylcellulose (MC)): 100 % of control
- T/C (dose: 30.0 mg/kg/injection, schedule: Q01DX Z (ip), vehicle: methylcellulose (MC)): 104 % of control
- T/C (dose: 45.0 mg/kg/injection, schedule: Q01DX Z (ip), vehicle: methylcellulose (MC)): 105 % of control
- T/C (dose: 50.0 mg/kg/injection, schedule: Q01DX009 (ip), vehicle: saline): 96 % of control
- T/C (dose: 50.0 mg/kg/injection, schedule: Q04DX003 (ip), vehicle: saline): 97 % of control
- T/C [11]: 99 % of control
- T/C (dose: 100.0 mg/kg/injection, schedule: Q01DX009 (ip), vehicle: saline): 100 % of control
- T/C [4]: 97 % of control
- T/C [12]: 91 % of control
- T/C [5]: 94 % of control

Structure (SMILES): COc1ccccc1C(=O)P(=O)(OC)OC
- T/C [11]: 104 % of control
- T/C [12]: 93 % of control
- T/C [13]: 95 % of control

Structure (SMILES): Cc1c2oc3c(C)ccc(C(=O)NC4C(=O)NC(C(C)C)C(=O)N5CCCC5C(=O)N(C)CC(=O)N(C)C(C(C)C)C(=O)OC4C)c3nc-2c(C(=O)NC2C(=O)NC(C(C)C)C(=O)N3CCCC3C(=O)N(C)CC(=O)N(C)C(C(C)C)C(=O)OC2C)c(NCCCO)c1=O (stereo unspecified)
- T/C (dose: 0.07 mg/kg/injection, schedule: Q04DX003 (ip), vehicle: saline + alcohol): 95 % of control
- T/C (dose: 0.1 mg/kg/injection, schedule: Q01DX009 (ip), vehicle: saline + alcohol): 116 % of control
- T/C (dose: 0.15 mg/kg/injection, schedule: Q04DX003 (ip), vehicle: saline + alcohol): 107 % of control
- T/C (dose: 0.2 mg/kg/injection, schedule: Q01DX001 (ip), vehicle: saline + alcohol): 106 % of control
- T/C (dose: 0.3 mg/kg/injection, schedule: Q04DX003 (ip), vehicle: saline + alcohol): 108 % of control
- T/C (dose: 0.4 mg/kg/injection, schedule: Q01DX001 (ip), vehicle: saline + alcohol): 107 % of control
- T/C (dose: 0.6 mg/kg/injection, schedule: Q04DX003 (ip), vehicle: saline + alcohol): 114 % of control
- T/C (dose: 0.62 mg/kg/injection, schedule: Q04DX003 (ip), vehicle: saline + alcohol): 111 % of control
- T/C (dose: 0.8 mg/kg/injection, schedule: Q01DX001 (ip), vehicle: saline + alcohol): 103 % of control
- T/C (dose: 1.0 mg/kg/injection, schedule: Q01DX001 (ip), vehicle: saline + alcohol): 112 % of control
- T/C (dose: 1.25 mg/kg/injection, schedule: Q04DX003 (ip), vehicle: saline + alcohol): 121 % of control
- T/C (dose: 1.6 mg/kg/injection, schedule: Q01DX001 (ip), vehicle: saline + alcohol): 95 % of control
- T/C (dose: 2.0 mg/kg/injection, schedule: Q01DX001 (ip), vehicle: saline + alcohol): 121 % of control
- T/C (dose: 3.2 mg/kg/injection, schedule: Q01DX001 (ip), vehicle: saline + alcohol): 104 % of control
- T/C (dose: 4.0 mg/kg/injection, schedule: Q01DX001 (ip), vehicle: saline + alcohol): 121 % of control
- T/C (dose: 5.0 mg/kg/injection, schedule: Q04DX003 (ip), vehicle: saline + alcohol): 160 % of control
- T/C (dose: 12.5 micrograms/kg/injection, schedule: Q01DX009 (ip), vehicle: saline + alcohol): 101 % of control and 116 % of control
- T/C (dose: 25.0 micrograms/kg/injection, schedule: Q01DX009 (ip), vehicle: saline + alcohol): 98 % of control
- T/C (dose: 50.0 micrograms/kg/injection, schedule: Q01DX009 (ip), vehicle: saline + alcohol): 106 % of control

Structure (SMILES): CSc1ccc(OC(C)=O)cc1C
- T/C [11]: 106 % of control
- T/C [12]: 98 % of control
- T/C [13]: 96 % of control

Structure (SMILES): c1ccc(C(=C(c2ccccc2)c2ccccc2)c2ccccc2)cc1
- T/C [6]: 99 % of control
- T/C [3]: 97 % of control
- T/C [7]: 94 % of control
- T/C [8]: 97 % of control
- T/C [9]: 92 % of control
- T/C [10]: 96 % of control

Structure (SMILES): Cc1cccc(C(C)(C)C)c1O
- T/C (dose: 100.0 mg/kg/injection, schedule: Q04DX003 (ip), vehicle: saline with Tween-80): 102 % of control
- T/C (dose: 200.0 mg/kg/injection, schedule: Q04DX003 (ip), vehicle: saline with Tween-80): 91 % of control
- T/C (dose: 400.0 mg/kg/injection, schedule: Q04DX003 (ip), vehicle: saline with Tween-80): 94 % of control

Structure (SMILES): Cc1cc(C(N)=O)c(C#N)c(=O)[nH]1
- T/C (dose: 75.0 mg/kg/injection, schedule: Q01DX001 (ip), vehicle: steriod suspending solution): 94 % of control
- T/C (dose: 150.0 mg/kg/injection, schedule: Q01DX001 (ip), vehicle: steriod suspending solution): 95 % of control

Structure (SMILES): COc1ccc(OC)c(N)c1
- T/C (dose: 25.0 mg/kg/injection, schedule: Q01DX009 (ip), vehicle: Klucel (hydroxypropylcellulose) (HPC)): 88 % of control
- T/C (dose: 50.0 mg/kg/injection, schedule: Q01DX009 (ip), vehicle: Klucel (hydroxypropylcellulose) (HPC)): 93 % of control
- T/C [6]: 93 % of control
